From patent US11873298B2, “Compounds and uses thereof” (JANSSEN PHARMACEUTICA NV, priority 2017, dated 2024)
pIC50: −log10 of the molar value.

Key:
Format in all cases: cell-based
Ole1 = target: T1, Ole1 (Saccharomyces cerevisiae, UniProt P21147); assay: Growth inhibition of yeast strain expressing Ole1 as sole desaturase; details: yeast strain expressing Ole1 as sole desaturase
T1 construct: expressed in transfected cells; host or cells: S. cerevisiae ole1Δ strain (W303 pdr1Δ pdr3Δ background), plasmid pRS316 with TDH3 promoter and CYC1 terminator
T1 sequence (P21147 1-510): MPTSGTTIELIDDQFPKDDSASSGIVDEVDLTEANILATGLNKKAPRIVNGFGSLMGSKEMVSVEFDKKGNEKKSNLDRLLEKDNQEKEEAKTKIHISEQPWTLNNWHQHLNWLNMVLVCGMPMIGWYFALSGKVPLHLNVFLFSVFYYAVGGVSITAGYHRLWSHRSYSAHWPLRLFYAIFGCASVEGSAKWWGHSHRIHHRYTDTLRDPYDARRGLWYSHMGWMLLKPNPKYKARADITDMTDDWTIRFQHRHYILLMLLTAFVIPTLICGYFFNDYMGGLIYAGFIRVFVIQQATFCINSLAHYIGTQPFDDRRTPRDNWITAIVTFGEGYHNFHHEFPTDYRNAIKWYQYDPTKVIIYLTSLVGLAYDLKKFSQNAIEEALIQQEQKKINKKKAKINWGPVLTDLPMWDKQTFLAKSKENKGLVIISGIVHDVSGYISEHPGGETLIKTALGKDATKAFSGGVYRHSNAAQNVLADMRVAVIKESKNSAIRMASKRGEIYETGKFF
Method: Strain oleΔ (yeast ole1 deletion mutant) was constructed by deleting OLE1 with NAT-MX6 in BY4741, amplifying the deletion cassette from the genomic DNA of the resulting strain with primers flanking the ORF by 1000 bp upstream and downstream, transforming the resulting deletion cassette into W303 pdr1Δ pdr3Δ, and plating transformants on YPD media containing G418 (200 μg/mL) and nourseothricin ([…]) with 0.01% TWEEN®-20 and 0.5 mM oleic and palmitoleic acids.
The coding sequence of yeast OLE1 was also cloned into this plasmid). These clones were then transformed into the ole1Δ strain and plated on CSM-Ura media (CSM lacking uracil) with 2% glucose (w/v) and independent colonies were isolated and amplified.
All compound profiling experiments were performed using the same basic protocol. Different genetic backgrounds (e.g., gene deletions) or conditions (e.g., addition of oleic and palmitoleic acid) were replaced as indicated below.
Yeast were cultured using standard techniques in complete synthetic media (CSM) and yeast nitrogen base supplemented with 2% (w/v) carbon source (glucose, raffinose, or galactose) to regulate the expression of the toxic disease protein. An initial starter culture was inoculated in 3 mL CSM-Glucose media and incubated overnight in a 30° C. shaker incubator (225 rpm). Saturated morning cultures were then diluted 1:20 in fresh CSM-Raffinose media and grown for 6 h to an OD600 (optical density) of ˜0.4-0.8 at 30° C. with shaking.
Compound administration was performed in two separate steps. First, 15 μL of CSM-Galactose (induces expression of toxic protein) was dispensed into clear 384 well assay plates using a MULTIDROP™ Combi reagent dispenser. […] The cultures described above were then diluted to a 2× concentration (0.03 and 0.08 for alpha-synuclein and ApoE, final ODsoo of 0.015 and 0.04) in CSM-Galactose. For wild-type and Ole1/SCD1/SCD5 plasmid-containing strains, the 2× cell density was 0.02. […] For 96-well assays (FIGS. 1A and 1B), compound dilutions in DMSO were generated in 96 well plates and 1 μL was manually pipetted into 96 well clear bottom assay plates.
For experiments using a plasmid-borne copy of Ole1, SCD1, or SCD5 (FIGS. 3B, 6, and 7), media lacking uracil (SX-Ura, where X is glucose, raffinose, or galactose), was used for all steps of the compound profiling protocol to ensure its maintenance throughout the assay.
After yeast delivery, assay plates were incubated under humidified conditions at 30° C. for 24 to 40 h. ApoE4 rescue experiments were stopped at 24 h, aSyn experiments at 40 h, Ole1 at 24 h, and SCD1/SCD5 at 40 h. The growth of yeast was monitored by reading the ODsoo of each well using a microplate reader (Perkin Elmer EnVision™).

SCD1 = target: T2, SCD1 (Homo sapiens, UniProt O00767); assay: Growth inhibition of humanized yeast strain expressing SCD1 as sole desaturase; details: humanized yeast strain expressing SCD1
T2 construct: host or cells: S. cerevisiae ole1Δ strain (W303 pdr1Δ pdr3Δ background), plasmid pRS316 with TDH3 promoter and CYC1 terminator
T2 sequence (O00767 1-359): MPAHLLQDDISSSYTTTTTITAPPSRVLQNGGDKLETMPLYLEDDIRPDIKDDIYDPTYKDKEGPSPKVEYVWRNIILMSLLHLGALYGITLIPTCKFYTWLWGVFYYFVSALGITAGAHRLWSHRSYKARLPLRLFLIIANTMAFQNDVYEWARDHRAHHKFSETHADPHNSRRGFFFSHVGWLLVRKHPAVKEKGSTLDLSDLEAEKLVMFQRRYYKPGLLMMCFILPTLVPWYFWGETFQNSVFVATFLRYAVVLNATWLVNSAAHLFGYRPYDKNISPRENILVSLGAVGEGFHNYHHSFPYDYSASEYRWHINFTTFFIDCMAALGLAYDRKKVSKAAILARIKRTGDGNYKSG
Method in brief: (§1)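 Plasmid-complemented ole1Δ yeast, drug-pump deleted (pdr1Δ pdr3Δ), depend solely on the introduced Ole1, SCD1 or SCD5 desaturase. Compounds are added from DMSO to cells in uracil-free galactose medium, 2× density 0.02, and OD600 is read after 24 h or 40 h respectively.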

SCD5 = target: T3, SCD5 (Homo sapiens, UniProt Q86SK9); assay: Growth inhibition of humanized yeast strain expressing SCD5 as sole desaturase; details: humanized yeast strain expressing SCD5
T3 construct: host or cells: S. cerevisiae ole1Δ strain (W303 pdr1Δ pdr3Δ background), plasmid pRS316 with TDH3 promoter and CYC1 terminator
T3 sequence (Q86SK9 1-330): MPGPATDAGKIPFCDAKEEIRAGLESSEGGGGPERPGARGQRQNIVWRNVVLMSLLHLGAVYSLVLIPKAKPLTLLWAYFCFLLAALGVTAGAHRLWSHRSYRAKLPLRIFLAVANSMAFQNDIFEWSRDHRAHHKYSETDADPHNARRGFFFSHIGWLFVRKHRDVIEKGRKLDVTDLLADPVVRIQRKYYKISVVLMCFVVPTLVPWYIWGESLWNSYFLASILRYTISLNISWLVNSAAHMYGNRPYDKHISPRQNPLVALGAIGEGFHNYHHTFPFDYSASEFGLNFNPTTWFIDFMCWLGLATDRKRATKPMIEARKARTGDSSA
Method in brief: as §1

| Structure (SMILES) | pIC50 (Ole1) | OLE1 % Max Inhibition (Ole1) [%] | pIC50 (SCD1) | SCD1 % Max Inhibition (SCD1) [%] | pIC50 (SCD5) | SCD5 % Max Inhibition (SCD5) [%] |
| --- | --- | --- | --- | --- | --- | --- |
| Cn1ncc2c1CN(c1noc(C3CCN(C(=O)C4CC(=O)N(c5ccccc5)C4)CC3)n1)CC2 (stereo not shown) [Compound 243] | < 4.35 | 94.60 | < 4.35 | 94.50 | < 4.35 | 72.11 |
| Cc1nn(C)c2cc(-c3noc(C4CCN(C(=O)CNC(=O)c5cccc(C#N)c5)CC4)n3)ccc12 [Compound 322] | < 4.35 | 9.0 |  | 73.6 | < 4.35 | 29.8 |
| CCOc1ccc(-c2noc(C3CCN(C(=O)CN4Cc5c(F)cccc5C4=O)CC3)n2)cc1OC [Compound 175] | < 4.35 | 3.00 | < 4.35 | 77.47 | < 4.35 | 77.96 |
| O=C(C1CC(=O)N(c2cccc(Cl)c2)C1)N1CCC(c2nc(N3CCOCC3)no2)CC1 (stereo not shown) [Compound 323] | < 4.35 | 89.1 | < 4.35 | 76.1 | < 4.35 | 73.5 |
| Cc1nn(C)c2cc(-c3noc(N4CCC(C(=O)N5CCO[C@H](c6ccccc6)C5)CC4)n3)ccc12 [Compound 211] | < 4.35 | 2.65 | < 4.35 | 39.99 | < 4.35 | 6.95 |
| Cn1c(=O)[nH]c2ccc(-c3noc(C4CCN(C(=O)CNC(=O)c5ccccc5)CC4)n3)cc21 [Compound 162] | < 4.35 | 100.35 | < 4.35 | 84.54 | < 4.35 | 76.89 |
| CCOc1ccc(-c2noc(C3CCN(C(=O)CN4Cc5cccc(F)c5C4=O)CC3)n2)cc1OC [Compound 178] | < 4.35 | 7.39 | < 4.35 | 114.07 | < 4.35 | 85.67 |
| CC(C)c1ccc(C(=O)N2CCC(c3nc(C(=O)Nc4cnn(C)c4)no3)CC2)cc1 [Compound 285] | < 4.35 | 105.26 |  | 45.62 | < 4.35 | 30.09 |
| Cc1nn(C)c2cc(-c3noc(C4CCN(C(=O)c5ccc(C(C)C)cc5)CC4)n3)ccc12 [Compound 290] | < 4.35 | 20.6 |  | 3.3 | < 4.35 | 8.8 |
| Cc1nn(C)c2cc(-c3noc(C4CCN(C(=O)COc5ccccc5)CC4)n3)ccc12 [Compound 266] | < 4.35 | 7.17 |  | 12.42 | < 4.35 | 9.90 |
| CC(C)c1ccc(C(=O)N2CCC(c3nc(C(=O)Nc4ccnn4C)no3)CC2)cc1 [Compound 287] | < 4.35 | 93.89 |  | 72.51 | < 4.35 | 66.81 |
| COc1ccc(-c2noc(C3CCN(C(=O)CN)CC3)n2)cc1OC [Compound 75] | < 4.35 |  | < 4.35 |  | 4.52 |  |
| Cc1nn(C)c2cc(-c3nsc(C4CCN(C(=O)OC(C)(C)C)CC4)n3)ccc12 [Compound 300] | < 4.35 | 79.7 |  | 78.1 | < 4.35 | 36.0 |
| Cc1nn(C)c2cc(-c3noc(N4CCN(C(=O)c5cc(F)ccc5Cl)CC4)n3)ccc12 [Compound 278] | < 4.35 | 21.08 |  | 32.22 | < 4.35 | 10.55 |
| Cc1nn(C)c2cc(-c3noc(C4CCN(C(=O)Oc5ccccc5)CC4)n3)ccc12 [Compound 272] | < 4.35 | 40.3 |  | 70.8 | < 4.35 | 51.9 |
